Several values for one entry are separate records, joined by “and”; a condition that tells them apart may be missing. Equal values may be shown once.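 These data come from cells grown in 96-well plates and exposed to compound for 48 hours at five concentrations. The concentration for 50% growth inhibition is given as GI50. TGI denotes the concentration required for complete inhibition of growth.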
What was measured:
Assay in all cases: NCI-60 cell line screen, 48 h
[1] = system: NCI-H23 lung
[2] = system: HOP-92 NSCLC
[3] = system: SF-268 CNS
[4] = system: A498 renal
[5] = system: KM12 colon
[6] = system: DU-145 prostate
[7] = system: NCI-H460 lung
[8] = system: SN12C renal
[9] = system: SK-MEL-5 melanoma
[10] = system: CCRF-CEM leukemia
[11] = system: TK-10 renal
[12] = system: UO-31 renal
[13] = system: CAKI-1 renal
[14] = system: RPMI-8226 leukemia
[15] = system: M14 melanoma
[16] = system: T-47D breast
[17] = system: HS 578T breast
[18] = system: SNB-19 CNS

Row | SMILES | TGI [1] [µM] | TGI [2] [µM] | TGI [3] [µM] | TGI [4] [µM] | TGI [5] [µM] | TGI [6] [µM] | TGI [7] [µM] | TGI [8] [µM] | TGI [9] [µM] | TGI [10] [µM] | TGI [11] [µM] | TGI [12] [µM] | TGI [13] [µM] | TGI [14] | TGI [15] [µM] | TGI [16] [µM] | TGI [17] [µM] | TGI [18] [µM] | GI50 [9] | GI50 [14]
1 | O=C1CCCN1C(=O)CS(=O)(=O)c1ccccc1 | > 100 | > 100 | > 100 | > 100 | > 100 | > 100 | > 100 | > 100 | > 100 | > 100 | > 100 | > 100 | > 100 | > 100 µM | > 100 | > 100 | > 100 | > 100 |  | 
2 | O=C1OCC2OC(=O)c3cc(O)c(O)c(O)c3-c3c(O)c(O)c(O)c4c3C(=O)OC(C2OC(=O)c2cc(O)c(O)c(O)c2-c2c1cc(O)c(O)c2O)C1OC(=O)c2c-4c(O)c(O)c(O)c2[C@@H]1C(O)C(O)C(O)C(O)CO (some centres not stated) | 43.5 | 45.8 | 47.4 | > 100 | 52.3 | 47.5 | 39.5 | 32.6 | 28 | 23.7 |  | 33.8 | 26.7 | 73.8 µM | 39.4 | 45.2 | 70.3 | > 100 |  | 
3 | O=c1[nH]cc(-c2c[nH]c3ccccc23)nc1-c1c[nH]c2ccccc12 | 31.5 | 33.3 | 27.9 | 27.9 | > 100 | 28.1 | 43.4 | 33.4 | 26.1 |  | 30.5 | 29.8 | 24.6 | 43.8 µM | 28.1 | 41.9 | 39.9 | 34.6 |  | 
4 | O=C(NC1CCCCC1NC(c1ccccc1)(c1ccccc1)c1ccccc1)C(=O)NC1CCCCC1NC(c1ccccc1)(c1ccccc1)c1ccccc1 (configuration not stated) | > 100 | 60.5 | > 100 | > 100 | > 100 | > 100 | > 100 | > 100 | > 100 | > 100 | > 100 | > 100 | > 100 | > 100 µM |  | > 100 | 72.5 | > 100 |  | 
5 | C=CCC1(OCc2ccccc2)C(=O)C(=O)OC1C1COC(C)(C)O1 (configuration not stated) | > 100 |  | > 100 | > 100 | > 100 | > 100 | > 100 | > 100 | > 100 | > 100 | > 100 | > 100 | > 100 | > 100 µM | > 100 | > 100 | > 100 | > 100 |  | 
6 | COC(=O)[C@@H]1CC(C(C[N+](=O)[O-])c2ccc(O[Si](C)(C)C(C)(C)C)cc2)C(=O)N1C(=O)OC(C)(C)C (some centres not stated) |  | > 100 | > 100 | > 100 | > 100 | > 100 |  | > 100 | > 100 | > 100 | > 100 | > 100 | > 100 | 72.4 µM and 95 µM | > 100 | > 100 | > 100 | > 100 | > 100 µM and 39.9 µM | 3.2 µM and 23.7 µM
7 | C=CC[C@@H](N)C(=O)N(C)[C@@H](C)[C@@H](O)c1ccccc1 | > 100 | > 100 | > 100 | > 100 | > 100 | > 100 | > 100 |  | > 100 | > 100 | > 100 | > 100 | > 100 |  | > 100 | > 100 | > 100 | > 100 |  | 
8 | CNC(=O)C1(N)c2ccccc2C=Cc2ccccc21 | > 100 | > 100 | > 100 | > 100 | > 100 | > 100 |  | > 100 | > 100 | > 100 | > 100 | > 100 | > 100 | > 100 µM | > 100 | > 100 | > 100 | > 100 |  | 
9 | COc1ccc(C2SCC(=O)N2c2ccc(-c3ccc(-n4c(-c5ccccc5)nc5ccccc5c4=O)cc3)cc2)cc1OC (configuration not stated) | > 100 | > 100 | > 100 | > 100 | 28.3 | > 100 | > 100 | > 100 |  | 92.5 | 83.9 | > 100 | > 100 | > 100 µM | > 100 | > 100 | > 100 | > 100 |  | 
10 | Nc1n[n+](CC(=O)c2ccccc2)c2sc(-c3ccccc3)nn12 | > 100 |  | > 100 | > 100 | > 100 | > 100 | > 100 | > 100 | > 100 | > 100 | > 100 | > 100 | > 100 | > 100 µM | > 100 | > 100 | > 100 | > 100 |  | 
11 | CS(=O)(=O)OCC1CN(S(C)(=O)=O)c2cc(O)ccc21 (configuration not stated) | 6.61 | 7.08 | 13.5 | 7.81 | 13 | 10 | 10.5 | 13.5 | 3.52 | 5.76 | 6.62 | 11.1 | 14.2 | 12.2 µM |  | 1.96 | > 100 |  |  | 
12 | O=C(O)C12C3CCC(CC3)C1(C(=O)O)C1CCC2C1 (configuration not stated) | > 100 |  | > 100 | > 100 | > 100 | > 100 | > 100 | > 100 | > 100 | > 100 | > 100 | > 100 | > 100 | > 100 µM | > 100 | > 100 | > 100 | > 100 |  | 
13 | CO/C(=N\N=C\c1ccc(OC)c(OC)c1)c1ccncc1 | > 10 | > 10 | > 10 | > 10 | > 10 | > 10 | > 10 | > 10 | > 10 | > 10 | > 10 | > 10 | > 10 | > 10 µM | > 10 | > 10 | > 10 |  |  | 
14 | CCc1nn(CN2CCOCC2)c(=S)n1/N=C/c1ccc(-c2ccc(Cl)cc2)o1 | > 100 | > 100 | > 100 | > 100 | > 100 | > 100 | > 100 |  | > 100 |  | > 100 | > 100 | > 100 | > 100 µM | > 100 | > 100 | > 100 |  |  | 
15 | COc1cc2c(cc1OC)C1C=NC(C2)c2cc(OC)c(OC)cc21 (configuration not stated) |  | > 100 | > 100 | > 100 | > 100 | > 100 | > 100 | > 100 | > 100 |  | > 100 | > 100 | > 100 | > 100 µM | > 100 | > 100 | > 100 | > 100 |  | 
16 | CC1=NC(=Cc2cccc(Cl)c2)C(=O)N1n1c(-c2ccccc2)nc2ccccc2c1=O | > 100 |  | > 100 | 83.1 | > 100 | > 100 | 46.5 | > 100 | > 100 | > 100 | > 100 | > 100 | 87.6 | > 100 µM | > 100 | 69 | > 100 | > 100 |  | 
17 | CN(C)c1ccc(NN=C2SC(=Nc3ccccc3)C(=Nc3ccccc3)S2)cc1 | > 100 | > 100 | > 100 | > 100 | > 100 | > 100 | > 100 | > 100 | > 100 | > 100 | > 100 | > 100 | > 100 | > 100 µM |  | > 100 | > 100 | > 100 |  | 
18 | CCC1(c2ccccc2)C(=O)N=C(c2ccccc2)N1CCc1ccccc1 (configuration not stated) | > 100 | > 100 | > 100 | > 100 | > 100 | > 100 |  | > 100 | > 100 | > 100 | > 100 | > 100 | > 100 | > 100 µM | > 100 | > 100 | > 100 | > 100 |  | 
19 | CCOC(=O)C1=NOC2(C=C(Br)C(=O)C(Br)=C2)C1 | 9.41 | 3.56 | 29.1 | 38 | 29.7 | 17.8 | 15 | 19.6 | 21.7 |  | 2.27 | 2.51 | 2.88 | 2.56 µM | 3.29 | 3.99 | 68.1 | 40 |  | 
20 | CC(=O)Nc1ccc(C(O)/C(=N/N)c2nc3ccc(Cl)cc3[nH]c2=O)cc1 (configuration not stated) | > 100 | > 100 | > 100 | > 100 | > 100 | > 100 | > 100 | > 100 | > 100 | > 100 | > 100 | > 100 | > 100 |  | > 100 | > 100 | > 100 | > 100 |  | 
